Data on 1 compound can be found in paper PMC8448162, “Single- and Multiple-Ascending-Dose Study of the Safety, Tolerability, and Pharmacokinetics of the Polymyxin Derivative SPR206” (Antimicrobial Agents and Chemotherapy, 2021).

Positions of bridges follow the written chain, without caps; N, C: chain ends. Non-standard residues stand in square brackets, D forms with d. Residues, ends and D or L forms follow the SMILES beside them. *: point of attachment. X1 = NC[C@@H](CC(=O)*)c1cccc(Cl)c1; Dab = NCC[C@H](N)C(=O)O; Dap = NC[C@H](N)C(=O)O

For data set [1] the following is noted: in vivo; cited from earlier work.
The next data set has as its system kidney cell. As to conditions: cited from earlier work.
In the next data set the test system is kidney. Particulars: mouse, in vivo; cited from earlier work.
The format of data set [2] is in vitro ADME. The procedure: In the MAD phase, plasma samples for PK analysis were collected (i) on day 1—pre-dose and at 30, 60, 75, 90, 105, 120, and 150 min and at 3, 5, and 8 h following start of the first infusion; (ii) prior to the morning dose (within 10 min) on days 2, 3, 5, 7, 9, 11, and 13; and (iii) predose and 30, 75, 90, 105, 120, and 150 min and 3, 5, 8, and 12 h (day 14), 24, 36 (day 15), and 48 h (day 16) following start of the last infusion. Urine was collected for PK assessment on day 1 predose, over the intervals 0 to 4 h and 4 to 8 h after start of first infusion, and on days 14 and 15 over the intervals 0 to 4 h, 4 to 8 h, 8 to 12 h, and 12 to 24 h after start of day 14 infusion. Total 24-h urine for calculating CrCl was collected from the morning of day −1 to predose on day 1 and on days 15 and 16 over the interval from 24 to 48 h after the start of the day 14 infusion. Urine creatinine concentrations were measured using 24-h collections prior to the first dose on day 1 and over the 24 to 48 h following start of infusion of the last dose (day 14). Plasma and urine samples for SPR206 levels were analyzed using a validated liquid chromatography-tandem mass spectrometry (LC-MS/MS) method. The assay range for SPR206 was 50 to 5,000 ng/ml in plasma and 100 to 50,000 ng/ml in urine. […]

In the case of `CC(C)C[C@@H]1NC(=O)[C@@H](Cc2ccccc2)NC(=O)[C@H](CCN)NC(=O)[C@@H](NC(=O)[C@H](CN)NC(=O)[C@@H](NC(=O)C[C@H](CN)c2cccc(Cl)c2)[C@@H](C)O)CCNC(=O)[C@H]([C@@H](C)O)NC(=O)[C@H](CCN)NC(=O)[C@H](CCN)NC1=O` [SPR206] (X1-T[Dap][Dab][Dab][dF]L[Dab][Dab]T; lactam 3-C (inferred)), the “accumulation after repeat dosing” value in data set [1] was “no apparent accumulation”. In addition, the “kidney cell cytotoxicity compared with PMB” value with kidney cell is “lower kidney cell cytotoxicity”. Further, the “histopathological changes in the kidney” value in the data set with kidney is reported as “no histopathological changes in the kidney”. Besides, the stability in urine in data set [2] is on record as 147 h. The compound further had a stability in plasma in data set [2] (plasma) of 194 h.
